Assay [1] deals with T1, EoblOBP6 (Ectropis obliqua, UniProt A0A1L2BL92). In words: Fluorescence competitive binding assay (displacement of 1-NPN from recombinant EoblOBP6). Here is the method:
(§1) Fluorescence binding assays were performed on a fluorescence spectrophotometer F-380 (Tianjin, China) with a 1 cm light path quartz cuvette and 10 nm slits for excitation and emission. The excitation wavelength was set at 337 nm, and the emission spectrum was recorded between 390 and 500 nm. Both the fluorescent probe N-phenyl-1-naphthylamine (1-NPN) and the tested chemicals were dissolved in methanol in preparation for 1 mM stock solution. […] The fluorescence intensities at the maximum fluorescence emission were plotted against the free ligand concentration to determine the binding constants. The bound ligand was evaluated from the fluorescence intensity in the assumption of the protein was 100% dynamic, with a stoichiometry of 1:1 (protein: ligand) at saturation. The binding curves were linearized using Scatchard Plot.

The target in assay [2] is T1, EoblOBP6. Kind of assay: Fluorescence binding assay of probe 1-NPN with recombinant EoblOBP6 (titration, Scatchard plot). The protocol: as §1, with “For the ligand binding assays, the tested compounds, including terpenoids, tea volatiles, herbivore-induced plant volatiles and non-volatile tastants, were selected according to the previously reported isolation from the E. obliqua host plant and non-host plant ([Sun X.L. et al., 2014]; [Zhang Z. et al., 2015]). Fluorescence” for “Fluorescence”, “saturation. […]” for “saturation.”, “dissociation constants of competitors” for “binding curves”, “calculated from the corresponding IC50 values following the equation: Ki = (IC50)/(1+(1-NPN)/K1-NPN), where (1-NPN) is the free concentration of 1-NPN and K1-NPN is the dissociation constant of the protein/1-NPN complex.” for “linearized using Scatchard Plot.”

In a further assay the test system is antennae of E. obliqua. Details: method as in Zhang Z. et al., 2015. The following applies: ref Zhang Z. et al., 2015; cited from earlier work.
[3] abbreviates: Table 1 volatiles, calculated from IC50: Ki = (IC50)/(1+(1-NPN)/K1-NPN).
Where [4] appears, read: Table 2 non-volatile tastants, calculated from IC50: Ki = (IC50)/(1+(1-NPN)/K1-NPN).
The mark [5] stands for this setting: Table 2 non-volatile tastants, competitor 2 to 30 μM, 1-NPN and EoblOBP6 both at 2 μM.
[6] abbreviates: Table 1 volatiles, calculated from IC50: Ki = (IC50)/(1+(1-NPN)/K1-NPN), read-out: Ki.
[7] abbreviates: Table 1 volatiles, competitor titrated 2 to 30 μM into 1-NPN and EoblOBP6 both at 2 μM, 50 mM Tris-HCl pH 7.4, read-out: IC50.

Entries after “also recorded” stand apart in the source; their conditions may differ. Read-outs that look alike come from different tables or passages of the source.

T1 sequence (A0A1L2BL92 entry or part of it): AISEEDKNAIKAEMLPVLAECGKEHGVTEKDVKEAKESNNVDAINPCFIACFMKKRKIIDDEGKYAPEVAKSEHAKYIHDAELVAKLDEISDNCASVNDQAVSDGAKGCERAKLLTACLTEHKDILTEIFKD

As a reminder, the IC50 is the concentration that gives 50% inhibition. The Ki is a measure of affinity in units of concentration, obtained from inhibition or displacement. As for `C=CC(C)(O)CCC=C(C)CCC=C(C)C` (mixture of isomers) [Nerolidol], at EoblOBP6 [1], the IC50 came out at 15.6 ± 0.76 µM, the Ki was found to be 10.9 ± 0.53 µM and the “binding ability to EoblOBP6 in words” value was “high binding ability”.
Turning to `CC1=C[C@H](O)[C@H]2C[C@@H]1C2(C)C` (relative stereo) [cis-Verbenol], the Ki result on EoblOBP6 [1] (setting [3]) is reported as “u.d”.
As to `CCCCCCO` [1-Hexanol], on EoblOBP6 [1], the “binding ability to EoblOBP6 in words” value is on record as “could hardly bind”. The Ki result at EoblOBP6 [1] (setting [3]) is listed as “u.d”.
The Kd is the constant that tells how readily two partners part at equilibrium. Regarding `c1ccc(Nc2cccc3ccccc23)cc1` [1-NPN, N-phenyl-1-naphthylamine], at EoblOBP6 [2], the Kd is 2.7 ± 0.24 µM.
As for `C=C1[C@H]2CC[C@H](C2)C1(C)C` [(+)-Camphene], the Ki result on EoblOBP6 [1] (setting [3]) was “u.d”.
The same measure, in the same setting: for `C=C1CCC2CC1C2(C)C` (stereo not drawn) [(-)-β-Pinene] the value was “u.d”; for `CCC/C=C/C=O` [(E)-2-hexenal], “u.d”.
As for `CC/C=C\CC=O` [(Z)-3-hexenal], the Ki result at EoblOBP6 [1] (setting [3]) is recorded as “u.d”.
Take `CC/C=C\CCO` [(Z)-3-hexenol]: on EoblOBP6 [1], the “binding ability to EoblOBP6 in words” value was “could hardly bind”. In addition, the Ki entry on EoblOBP6 [1] (setting [3]) is reported as “u.d”.
Take `CC/C=C\CCOC(C)=O` [(Z)-3-hexenyl acetate]: the Ki entry on EoblOBP6 [1] (setting [3]) is listed as “u.d”.
Still for that read-out and setting: as for `CC/C=C\CCOC(=O)CCC` [(Z)-3-hexenyl butyrate], the entry is “u.d”.
For the molecule `CC/C=C\CCOC(=O)CCCCC` [(Z)-3-hexenyl hexanoate], the Ki entry on EoblOBP6 [1] (setting [3]) was “u.d”.
On to `CN1[C@@H]2CC[C@H]1C[C@@H](OC(=O)C(CO)c1ccccc1)C2` (some centres unmarked) [Atropine, reference compound], for which the Ki entry on EoblOBP6 [1] (setting [4]) was “u.d”. Also, the IC50 result at EoblOBP6 [1] (setting [5]) was “u.d”.
Regarding `O=Cc1ccccc1` [Benzaldehyde], on EoblOBP6 [1], the IC50 came to 21.6 ± 0.84 µM and the Ki was found to be 15.1 ± 0.58 µM.
With `OCc1ccccc1` [Benzyl alcohol], the Ki entry on EoblOBP6 [1] (setting [3]) was “u.d”.
For `N#CCc1ccccc1` [Benzyl nitrile], the Ki entry at EoblOBP6 [1] (setting [3]) is “u.d”.
For `COc1ccc2cc3[n+](cc2c1OC)CCc1cc2c(cc1-3)OCO2` [Berberine], at EoblOBP6 [1], the IC50 was 7.94 ± 0.61 µM, the Ki was 5.55 ± 0.87 µM and the “binding ability to EoblOBP6 in words” value was “tightly bound; also recorded: bind strongly”.
Regarding `Cn1c(=O)c2c(ncn2C)n(C)c1=O` [Caffeine, reference compound], the Ki entry at EoblOBP6 [1] (setting [4]) is given as “u.d”. For the same molecule, the IC50 result on EoblOBP6 [1] (setting [5]) is recorded as “u.d”.
Consider `CC12CCC(CC1=O)C2(C)C` (centres unmarked) [Camphor], for which the Ki result at EoblOBP6 [1] (setting [3]) was “u.d”.
For the molecule `O.Oc1cc(O)c2c(c1)O[C@H](c1ccc(O)c(O)c1)[C@@H](O)C2` [Catechin], the Ki result on EoblOBP6 [1] (setting [4]) is given as “u.d”. Moreover, the IC50 result on EoblOBP6 [1] (setting [5]) is reported as “u.d”.
Consider `OCc1ccccc1O[C@@H]1O[C@H](CO)[C@@H](O)[C@H](O)[C@H]1O` [D(-)-Salicin], for which the Ki result at EoblOBP6 [1] (setting [4]) was “u.d”. The IC50 entry on EoblOBP6 [1] (setting [5]) is given as “u.d”.
In the case of `OC[C@H]1OC(O)[C@H](O)[C@@H](O)[C@@H]1O` (stereo partly drawn) [D-Glucose], the Ki entry on EoblOBP6 [1] (setting [4]) is “u.d”. Also, on EoblOBP6 [1] (setting [5]), the IC50 entry was “u.d”.
Regarding `OC[C@H]1O[C@@](CO)(O[C@H]2O[C@H](CO)[C@@H](O)[C@H](O)[C@H]2O)[C@@H](O)[C@@H]1O` [D-Sucrose], the Ki entry at EoblOBP6 [1] (setting [4]) is “u.d”. Further, the IC50 entry on EoblOBP6 [1] (setting [5]) is “u.d”.
For `O=C[C@H](O)[C@@H](O)[C@H](O)CO` [D-Xylose], the Ki result at EoblOBP6 [1] (setting [4]) is “u.d”. Moreover, the IC50 entry on EoblOBP6 [1] (setting [5]) is listed as “u.d”.
For the molecule `CCCCCCCCCC=O` [Decanal], the “binding ability to EoblOBP6 in words” value at EoblOBP6 [1] was “could hardly bind”. For the same molecule, the Ki entry on EoblOBP6 [1] (setting [3]) is reported as “u.d”.
Take `CCCCCCOC(C)=O` [Hexyl acetate]: the “binding ability to EoblOBP6 in words” value at EoblOBP6 [1] is on record as “could hardly bind”. For the same molecule, at EoblOBP6 [1] (setting [3]), the Ki entry is listed as “u.d”.
Take `c1ccc2[nH]ccc2c1` [Indole]: the Ki result on EoblOBP6 [1] (setting [3]) is recorded as “u.d”.
Turning to `C[C@H](N)C(=O)O` [L-Alanine], the Ki entry at EoblOBP6 [1] (setting [4]) is listed as “u.d”. The IC50 result on EoblOBP6 [1] (setting [5]) is “u.d”.
On to `N[C@@H](Cc1c[nH]cn1)C(=O)O` [L-Histidine], for which the Ki result on EoblOBP6 [1] (setting [4]) is reported as “u.d”. On EoblOBP6 [1] (setting [5]), the IC50 entry is given as “u.d”.
In the case of `C=C(C)[C@H]1CC=C(C)CC1` [Limonene], the Ki result at EoblOBP6 [1] (setting [3]) was “u.d”.
As for `C=CC(C)(O)CCC=C(C)C` (centres unmarked) [Linalool], at EoblOBP6 [1] (setting [3]), the Ki entry is listed as “u.d”.
Regarding `COC(=O)c1ccccc1O` [Methyl salicylate], the Ki entry on EoblOBP6 [1] (setting [3]) is reported as “u.d”.
Take `CCCCCCCCC=O` [Nonanal]: on EoblOBP6 [1] (setting [3]), the Ki entry is reported as “u.d”.
As for `Cn1c(=O)c2[nH]cnc2n(C)c1=O` [Theophylline, reference compound], the Ki entry at EoblOBP6 [1] (setting [4]) was “u.d”. In addition, the IC50 entry on EoblOBP6 [1] (setting [5]) is listed as “u.d”.
In the case of `OC[C@H]1O[C@H](O[C@H]2O[C@H](CO)[C@@H](O)[C@H](O)[C@H]2O)[C@H](O)[C@@H](O)[C@@H]1O` [Trehalose], the Ki result at EoblOBP6 [1] (setting [4]) is on record as “u.d”. Besides, the IC50 result on EoblOBP6 [1] (setting [5]) is given as “u.d”.
As for `CC1=CC(=O)[C@@H]2C[C@H]1C2(C)C` [Verbenone], the Ki entry at EoblOBP6 [1] (setting [3]) is “u.d”.
`C/C1=C\CC/C(C)=C/CC(C)(C)/C=C/C1` [α-Caryophyllene]: the Ki on EoblOBP6 [1] (setting [6]) is 15.6 ± 0.19 µM. For the same molecule, the IC50 at EoblOBP6 [1] (setting [7]) stood at 22.4 ± 0.27 µM.
For `C=C/C(C)=C/C/C=C(\C)CCC=C(C)C` [α-Farnesene], the “binding ability to EoblOBP6 in words” value at EoblOBP6 [1] is reported as “high binding ability”. In addition, the Ki at EoblOBP6 [1] (setting [6]) is 11 ± 0.29 µM. The IC50 at EoblOBP6 [1] (setting [7]) turned out to be 15.8 ± 0.42 µM.
As to `CC1=CCC2CC1C2(C)C` (stereo not drawn) [α-Pinene], the Ki result at EoblOBP6 [1] (setting [3]) was “u.d”.
On to `CC1=CC=C(C(C)C)CC1` [α-Terpinene], for which, at EoblOBP6 [1], the IC50 came out at 26.2 ± 0.53 µM and the Ki was found to be 18.3 ± 0.37 µM. The “electrophysiological responses from the antennae” value in the assay on antennae of E. obliqua was “strong electrophysiological responses”.
For `CC1=CC[C@@H](C(C)(C)O)CC1` [α-Terpineol], the Ki entry at EoblOBP6 [1] (setting [3]) is on record as “u.d”.
Turning to `C=C1CC/C=C(\C)CC[C@@H]2[C@@H]1CC2(C)C` [β-Caryophyllene], the Ki result at EoblOBP6 [1] (setting [3]) is listed as “u.d”.
Take `CC(=O)/C=C/C1=C(C)CCCC1(C)C` [β-Ionone]: the Ki entry at EoblOBP6 [1] (setting [3]) is on record as “u.d”.
As to `C=CC(=C)CCC=C(C)C` [β-Myrcene], the Ki result at EoblOBP6 [1] (setting [3]) was “u.d”.
On to `C=C/C(C)=C/CC=C(C)C` [β-Ocimene], for which, on EoblOBP6 [1] (setting [3]), the Ki result is “u.d”.
For `CC1=CCC(C(C)C)=CC1` [γ-Terpinene], the Ki entry at EoblOBP6 [1] (setting [3]) was “u.d”.
